# Patent US12492164B2, “Fluorine substituted cyclohexene analogues of gamma-aminobutyric acid (GABA)” (Northwestern University, priority 2019, dated 2025)
# Where a name gives a salt, the structure may show the parent alone. Read-outs that look alike come from different tables or passages of the source.
# Legend:
# [1] = biological target: T1, GABA-AT (Sus scrofa, UniProt P80147); assay: Coupled enzyme assay, time-dependent inactivation of GABA-AT; type: biochemical, pig
# T1 construct: GABA-AT was isolated from pig brains and purified according to a literature procedure; from tissue; host or cells: pig brain
# T1 sequence (P80147 29-500): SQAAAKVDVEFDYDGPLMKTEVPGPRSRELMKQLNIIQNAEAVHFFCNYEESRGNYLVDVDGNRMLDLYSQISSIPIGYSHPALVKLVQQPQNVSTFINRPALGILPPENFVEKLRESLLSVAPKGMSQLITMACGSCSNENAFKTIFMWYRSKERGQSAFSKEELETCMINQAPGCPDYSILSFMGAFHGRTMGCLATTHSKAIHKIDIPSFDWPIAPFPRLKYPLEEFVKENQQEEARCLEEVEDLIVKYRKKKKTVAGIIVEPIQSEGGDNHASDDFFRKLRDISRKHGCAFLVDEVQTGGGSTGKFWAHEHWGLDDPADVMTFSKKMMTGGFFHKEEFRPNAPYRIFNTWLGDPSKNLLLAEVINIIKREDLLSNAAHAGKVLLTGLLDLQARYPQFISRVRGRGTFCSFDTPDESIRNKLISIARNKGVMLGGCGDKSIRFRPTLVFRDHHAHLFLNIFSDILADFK
# Experimental: (§1) Kinetic Studies of Fluorine-Substituted Cyclohexene Analogues.
# (§2) hOAT and PYCR1 were expressed, grown, and purified according to literature procedures.4, 5 GABA-AT was isolated from pig brains and purified according to a literature procedure.6 Coupled enzyme assays for GABA-AT, hOAT, Ala-AT, and Asp-AT were carried out according to previous procedures.7, 8
# [2] = biological target: T2, hOAT (Homo sapiens, UniProt P04181); assay: Coupled enzyme assay, time-dependent inactivation of hOAT; type: biochemical
# T2 construct: made in house
# T2 sequence (P04181 26-439): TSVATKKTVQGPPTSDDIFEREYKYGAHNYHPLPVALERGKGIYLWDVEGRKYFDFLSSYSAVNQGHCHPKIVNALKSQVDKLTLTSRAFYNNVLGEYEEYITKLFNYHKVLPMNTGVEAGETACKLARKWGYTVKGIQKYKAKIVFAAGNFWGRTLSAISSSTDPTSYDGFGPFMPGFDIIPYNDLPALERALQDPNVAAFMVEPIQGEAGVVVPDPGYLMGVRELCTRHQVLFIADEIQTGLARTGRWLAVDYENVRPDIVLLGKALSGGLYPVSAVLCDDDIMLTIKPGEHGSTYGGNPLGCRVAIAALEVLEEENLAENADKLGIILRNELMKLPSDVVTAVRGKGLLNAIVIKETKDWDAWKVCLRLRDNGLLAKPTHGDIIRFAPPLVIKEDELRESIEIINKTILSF
# Experimental: as §1, §2
# [3] = system: HCC tumor; conditions: doses of 0.1 and 1.0 mg/kg; cited from earlier work
# [4] = inactivation of GABA-AT, pH 8.0
# [5] = inactivation of GABA-AT, pH 8.0, read-out: kinact/KI (converted)
# [6] = read-out: kinact/KI (converted)
# [7] = GABA-AT, pH 8.0, bound: KI is greater than kobs (max)/ratio (footnote b)
# [8] = GABA-AT, pH 8.0, bound: kinact is greater than maximum kobs in time-dependent assay (footnote b)
SMILES,"Ki [1, 4] [µM]","kinact [1, 4] [s⁻¹]","kinact/KI [1, 5] [M⁻¹ s⁻¹]","kinact/KI [2, 6] [M⁻¹ s⁻¹]",Ki [2] [µM],kinact ([2]; read-out: kinact (converted)) [s⁻¹],"Ki ([1]; GABA-AT, pH 6.5) [µM]","kinact ([1]; GABA-AT, pH 6.5) [s⁻¹]","kinact/KI ([1]; GABA-AT, pH 6.5, read-out: kinact/KI (converted)) [M⁻¹ s⁻¹]","kinact/KI ([1]; GABA-AT, pH 8.0, ratio determined by the slope of kobs vs [I] (footnote b), read-out: kinact/KI (converted)) [M⁻¹ s⁻¹]",kinact [2] [s⁻¹],kinact/KI [2] [M⁻¹ s⁻¹],in vivo HCC tumor growth [3],α-fetoprotein levels (a biomarker for HCC) [3],"Ki [1, 7] [µM]","kinact [1, 8] [s⁻¹]",kinact/KI ([1]; pH 8) [M⁻¹ s⁻¹]
"N[C@H]1C[C@@H](C(=O)O)CC1=C(C(F)(F)F)C(F)(F)F [Compound 7, (1S,3S)-3-Amino-4-(hexafluoropropan-2-ylidenyl)cyclopentane-1-carboxylic Acid, reference compound]",,,,,65 ± 10,,,,,,0.00095 ± 5e-05,14.5,suppressed,dramatically reduced,,,
"N[C@H]1C=C(C(=O)O)CCC1(F)F [Compound 9, (S)-3-Amino-4,4-difluorocyclohex-1-ene-1-carboxylic acid hydrochloride]",,,,339,2.3 ± 0.7,0.0008,1100,0.00333,3,25.3,,,,,> 120,> 0.003,
"N[C@H]1CC(C(=O)O)=CCC1(F)F [Compound 11, (S)-5-Amino-4,4-difluorocyclohex-1-ene-1-carboxylic acid hydrochloride]",,,,2.5,540 ± 17,0.00138,,,,,,,,,> 9630,> 0.00483,0.5

# Continued, in another order:
"Ki [1, 4] [µM]","kinact [1, 4] [s⁻¹]","kinact/KI [1, 5] [M⁻¹ s⁻¹]","kinact/KI [2, 6] [M⁻¹ s⁻¹]",Ki [2] [µM],kinact ([2]; read-out: kinact (converted)) [s⁻¹],"Ki ([1]; GABA-AT, pH 6.5) [µM]","kinact ([1]; GABA-AT, pH 6.5) [s⁻¹]","kinact/KI ([1]; GABA-AT, pH 6.5, read-out: kinact/KI (converted)) [M⁻¹ s⁻¹]","kinact/KI ([1]; GABA-AT, pH 8.0, ratio determined by the slope of kobs vs [I] (footnote b), read-out: kinact/KI (converted)) [M⁻¹ s⁻¹]",SMILES,kinact [2] [s⁻¹],kinact/KI [2] [M⁻¹ s⁻¹],in vivo HCC tumor growth [3],α-fetoprotein levels (a biomarker for HCC) [3],"Ki [1, 7] [µM]","kinact [1, 8] [s⁻¹]",kinact/KI ([1]; pH 8) [M⁻¹ s⁻¹]
78 ± 40,0.000283,3.67,1,,,,,,,"N[C@H]1C[C@@H](C(=O)O)C[C@@H]1F [Compound 1, (1R,3S,4S)-3-amino-4-fluorocyclopentane-1-carboxylic acid, reference compound]",,,,,,,
2530 ± 710,0.00163,0.65,42.7,31 ± 7,0.00133,,,,,"N[C@H]1C=C(C(=O)O)CC[C@@H]1F [Compound 8, (3S,4S)-3-Amino-4-fluorocyclohex-1-ene-1-carboxylic acid hydrochloride]",,,,,,,
4280 ± 2050,0.000467,0.108,0.283,4380 ± 860,0.00125,,,,,"N[C@H]1CC(C(=O)O)=CC[C@@H]1F [Compound 10, (4S,5S)-5-Amino-4-fluorocyclohex-1-ene-1-carboxylic acid hydrochloride]",,,,,,,
